# Results as given in patent US20210253575A1, “PYRROLIDINE AMINE COMPOUNDS FOR THE TREATMENT OF AUTOIMMUNE DISEASE” (Hoffmann-La Roche Inc., priority 2018, published 2021).
# Molecular target: T1, human TLR7 (Homo sapiens, UniProt Q9NYK1)
# T1 sequence (Q9NYK1 27-1049): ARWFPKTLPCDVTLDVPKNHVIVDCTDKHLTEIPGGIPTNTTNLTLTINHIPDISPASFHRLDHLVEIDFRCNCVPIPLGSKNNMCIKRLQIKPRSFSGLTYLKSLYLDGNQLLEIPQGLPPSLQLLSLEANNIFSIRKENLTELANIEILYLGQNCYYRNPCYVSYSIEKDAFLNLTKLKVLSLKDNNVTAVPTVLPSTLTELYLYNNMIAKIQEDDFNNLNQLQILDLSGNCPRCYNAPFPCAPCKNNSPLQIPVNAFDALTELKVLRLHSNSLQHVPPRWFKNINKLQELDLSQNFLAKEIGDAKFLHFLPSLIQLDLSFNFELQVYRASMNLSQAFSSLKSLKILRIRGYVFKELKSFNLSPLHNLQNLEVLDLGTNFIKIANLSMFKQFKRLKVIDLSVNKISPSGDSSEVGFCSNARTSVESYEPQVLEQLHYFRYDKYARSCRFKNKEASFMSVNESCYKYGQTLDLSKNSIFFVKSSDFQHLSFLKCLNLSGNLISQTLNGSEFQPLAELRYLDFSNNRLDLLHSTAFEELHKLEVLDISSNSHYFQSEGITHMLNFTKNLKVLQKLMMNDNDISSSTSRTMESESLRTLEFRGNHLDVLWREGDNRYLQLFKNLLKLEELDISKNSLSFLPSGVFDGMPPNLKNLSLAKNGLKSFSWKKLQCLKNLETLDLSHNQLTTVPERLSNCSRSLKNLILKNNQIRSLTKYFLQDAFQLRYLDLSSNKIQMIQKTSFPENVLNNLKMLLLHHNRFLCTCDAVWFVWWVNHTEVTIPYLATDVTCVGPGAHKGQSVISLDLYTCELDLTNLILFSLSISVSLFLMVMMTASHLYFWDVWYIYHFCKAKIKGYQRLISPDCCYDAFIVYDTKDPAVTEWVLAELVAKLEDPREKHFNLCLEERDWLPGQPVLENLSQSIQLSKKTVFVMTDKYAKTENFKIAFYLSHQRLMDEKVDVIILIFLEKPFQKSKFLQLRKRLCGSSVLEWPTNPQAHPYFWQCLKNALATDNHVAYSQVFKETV
# Assay: HEK293-Blue-hTLR-7 cells assay (SEAP reporter, R848 stimulation)
# Type: cell-based
# Settings: HEK293-Blue-hTLR7 cells, R848 ligand, 20 hrs incubation
# Description: The following tests were carried out in order to determine the activity of the compounds of formula (I) in HEK293-Blue-hTLR-7/8/9 cells assay.
# HEK293-Blue-hTLR-7 Cells Assay:
# A stable HEK293-Blue-hTLR-7 cell line was purchased from InvivoGen (Cat. #: hkb-htlr7, San Diego, Calif., USA). These cells were originally designed for studying the stimulation of human TLR7 by monitoring the activation of NF-κB. A SEAP (secreted embryonic alkaline phosphatase) reporter gene was placed under the control of the IFN-β minimal promoter fused to five NF-κB and AP-1-binding sites. The SEAP was induced by activating NF-κB and AP-1 via stimulating HEK-Blue hTLR7 cells with TLR7 ligands. Therefore the reporter expression was declined by TLR7 antagonist under the stimulation of a ligand, such as R848 (Resiquimod), for incubation of 20 hrs. The cell culture supernatant SEAP reporter activity was determined using QUANTI-Blue™ kit (Cat. #: rep-qb1, Invivogen, San Diego, Ca, USA) at a wavelength of 640 nm, a detection medium that turns purple or blue in the presence of alkaline phosphatase.
# HEK293-Blue-hTLR7 cells were incubated at a density of 250,000-450,000 cells/mL in a volume of 170 μL in a 96-well plate in Dulbecco's Modified Eagle's medium (DMEM) containing 4.5 g/L glucose, 50 U/mL penicillin, […], […], 2 mM L-glutamine, 10% (v/v) heat-inactivated fetal bovine serum with addition of 20 μL test compound in a serial dilution in the presence of final DMSO at 1% and 10 μL of 20 uM R848 in above DMEM, perform incubation under 37° C. in a CO2 incubator for 20 hrs. Then 20 μL of the supernatant from each well was incubated with 180 μL Quanti-blue substrate solution at 37° C. for 2 hrs and the absorbance was read at 620-655 nm using a spectrophotometer. The signalling pathway that TLR7 activation leads to downstream NF-κB activation has been widely accepted, and therefore similar reporter assay was modified for evaluating TLR7 antagonist.
row,SMILES,IC50 [nM]
1,"CC[C@@H]1CN(c2ccc(C#N)c3ncccc23)C[C@H]1CN1CCC2(CCNCC2)CC1 (relative stereo) [Example 15, 5-[Trans-3-(3,9-diazaspiro[5.5]undecan-3-ylmethyl)-4-ethyl-pyrrolidin-1-yl]quinoline-8-carbonitrile]",107
2,"FC(F)(F)c1ccc(N2C[C@@H](CN3CCC4(CCNC4)C3)[C@H](C(F)(F)F)C2)c2nccnc12 (relative stereo) [Example 19, 5-[Trans-3-(2,7-diazaspiro[4.4]nonan-2-ylmethyl)-4-(trifluoromethyl)pyrrolidin-1-yl]-8-(trifluoromethyl)quinoxaline]",142
3,"C[C@@H]1CN(c2ccc(C(F)(F)F)c3nccnc23)C[C@H]1CN1CCC2(CCNCC2)CC1 (relative stereo) [Example 21, 3-[[Trans-4-methyl-1-[8-(trifluoromethyl)quinoxalin-5-yl]pyrrolidin-3-yl]methyl]-3,9-diazaspiro[5.5]undecane]",189
4,"N#Cc1ccc(N2C[C@@H](CN3CCC4(CCNCC4)CC3)[C@H](C(F)F)C2)c2cccnc12 (relative stereo) [Example 27, 5-[Trans-3-(3,9-diazaspiro[5.5]undecan-3-ylmethyl)-4-(difluoromethyl)pyrrolidin-1-yl]quinoline-8-carbonitrile]",354
5,"N#Cc1ccc(N2C[C@@H](CN3CCC4(CCNCC4)CC3)[C@H](C3CC3)C2)c2cccnc12 (relative stereo) [Example 28, 5-[Trans-3-cyclopropyl-4-(3,9-diazaspiro[5.5]undecan-3-ylmethyl)pyrrolidin-1-yl]quinoline-8-carbonitrile]",355
6,"CC[C@@H]1CN(c2ccc(C#N)c3ncccc23)C[C@H]1CN1CCC2(CCNC2)C1 (relative stereo) [Example 29, 5-[Trans-3-(2,7-diazaspiro[4.4]nonan-2-ylmethyl)-4-ethyl-pyrrolidin-1-yl]quinoline-8-carbonitrile]",370
7,"C[C@@H]1CN(c2ccc(C(F)(F)F)c3nccnc23)C[C@H]1CN1CCC(N2CCCCC2)CC1 (relative stereo) [Example 33, 5-[Trans-3-methyl-4-[[4-(1-piperidyl)-1-piperidyl]methyl]pyrrolidin-1-yl]-8-(trifluoromethyl)quinoxaline]",432
8,"N#Cc1ccc(N2C[C@@H](CN3CCC4(CCNC4)C3)[C@H](C(F)F)C2)c2cccnc12 (relative stereo) [Example 34, 5-[Trans-3-(2,7-diazaspiro[4.4]nonan-2-ylmethyl)-4-(difluoromethyl)pyrrolidin-1-yl]quinoline-8-carbonitrile]",454
9,"CC(C)[C@@H]1CN(c2ccc(C#N)c3ncccc23)C[C@H]1CN1CCC2(CCNCC2)CC1 (relative stereo) [Example 36, 5-[Trans-3-(3,9-diazaspiro[5.5]undecan-3-ylmethyl)-4-isopropyl-pyrrolidin-1-yl]quinoline-8-carbonitrile]",471
10,"CC(C)[C@@H]1CN(c2ccc(C#N)c3ncccc23)C[C@H]1CN1CCC2(CCNC2)C1 (relative stereo) [Example 44, 5-[Trans-3-(2,7-diazaspiro[4.4]nonan-2-ylmethyl)-4-isopropyl-pyrrolidin-1-yl]quinoline-8-carbonitrile]",963
11,"N#Cc1ccc(N2CC(CN3CCC(N)CC3)C3(CC3)C2)c2nccnc12 (single isomer, unassigned) [Example 68A, 8-[7-[(4-Amino-1-piperidyl)methyl]-5-azaspiro[2.4]heptan-5-yl]quinoxaline-5-carbonitrile]",61
12,"N#Cc1ccc(N2C[C@H](CN3CCC4(CCNCC4)CC3)[C@@H](C(F)(F)F)C2)c2nccnc12 [Example 1, 8-[(3S,4R)-3-(3,9-diazaspiro[5.5]undecan-3-ylmethyl)-4-(trifluoromethyl)pyrrolidin-1-yl]quinoxaline-5-carbonitrile]",5
13,"N#Cc1ccc(N2C[C@H](CN3CCC4(CCNCC4)CC3)[C@@H](C(F)(F)F)C2)c2cccnc12 [Example 2, 5-[(3S,4R)-3-(3,9-diazaspiro[5.5]undecan-3-ylmethyl)-4-(trifluoromethyl)pyrrolidin-1-yl]quinoline-8-carbonitrile]",20
14,"N#Cc1ccc(N2C[C@H](CN3CCC4(CCNC4)C3)[C@@H](C(F)(F)F)C2)c2nccnc12 (stereo partly drawn) [Example 5, 8-[(3S,4R)-3-(2,7-diazaspiro[4.4]nonan-2-ylmethyl)-4-(trifluoromethyl)pyrrolidin-1-yl]quinoxaline-5-carbonitrile]",36
15,"N#Cc1ccc(N2C[C@H](CN3CCC4(CCCNC4)C3)[C@@H](C(F)(F)F)C2)c2cccnc12 (stereo partly drawn) [Example 6, 5-[(3S,7R)-3-(2,9-diazaspiro[4.5]decan-2-ylmethyl)-4-(trifluoromethyl)pyrrolidin-1-yl]quinoline-8-carbonitrile]",48
16,"CC1(N)CCN(CC2CN(c3ccc(C#N)c4nccnc34)CC23CC3)CC1 (centres unmarked) [Example 7, 8-[7-[(4-Amino-4-methyl-1-piperidyl)methyl]-5-azaspiro[2.4]heptan-5-yl]quinoxaline-5-carbonitrile]",54
17,"N#Cc1ccc(N2C[C@H](CN3CC4(CCCNC4)C3)[C@@H](C(F)(F)F)C2)c2cccnc12 [Example 8, 5-[(3S,7R)-3-(2,8-diazaspiro[3.5]nonan-2-ylmethyl)-4-(trifluoromethyl)pyrrolidin-1-yl]quinoline-8-carbonitrile]",57
18,"N#Cc1ccc(N2C[C@H](CN3CCC4(CCNC4)C3)[C@@H](C(F)(F)F)C2)c2cccnc12 (stereo partly drawn) [Example 9, 5-[(3S,4R)-3-(2,7-diazaspiro[4.4]nonan-2-ylmethyl)-4-(trifluoromethyl)pyrrolidin-1-yl]quinoline-8-carbonitrile]",61
19,"N#Cc1ccc(N2C[C@H](CN3CCC(N4CCCCC4)CC3)[C@@H](C(F)(F)F)C2)c2cccnc12 [Example 10, 5-[(3S,4R)-3-[[4-(1-piperidyl)-1-piperidyl]methyl]-4-(trifluoromethyl)pyrrolidin-1-yl]quinoline-8-carbonitrile]",69
20,"N#Cc1ccc(N2CC(CN3CCC(N4CCCCC4)CC3)C3(CC3)C2)c2nccnc12 (centres unmarked) [Example 11, 8-[7-[[4-(1-Piperidyl)-1-piperidyl]methyl]-5-azaspiro[2.4]heptan-5-yl]quinoxaline-5-carbonitrile]",74
21,"CC1(N)CCN(C[C@H]2CN(c3ccc(C#N)c4nccnc34)C[C@@H]2C(F)(F)F)CC1 [Example 12, 8-[(3S,4R)-3-[(4-amino-4-methyl-1-piperidyl)methyl]-4-(trifluoromethyl)pyrrolidin-1-yl]quinoxaline-5-carbonitrile]",15
22,"N#Cc1ccc(N2CC(CN3CCC4(CCCNC4)CC3)C3(CC3)C2)c2nccnc12 (centres unmarked) [Example 13, 8-[7-(2,9-Diazaspiro[5.5]undecan-9-ylmethyl)-5-azaspiro[2.4]heptan-5-yl]quinoxaline-5-carbonitrile]",102
23,"N#Cc1ccc(N2C[C@H](CN3CCC4(CCNC4)CC3)[C@@H](C(F)(F)F)C2)c2nccnc12 [Example 14, 8-[(3S,4R)-3-(2,8-Diazaspiro[4.5]decan-8-ylmethyl)-4-(trifluoromethyl)pyrrolidin-1-yl]quinoxaline-5-carbonitrile]",43
